The assay has as its system L1210 leukemia ip in BDF1 mice, survival T/C. Description: NCI In Vivo Anticancer Drug Screen. Data for tumor model L1210 Leukemia (intraperitoneal) in B6D2F1 (BDF1) mice. The conditions noted are these: endpoint: mean survival time, higher = longer survival. The procedure, abridged: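 Tumor cells were implanted, animals were treated, and survival was followed. The result divides the treated measurement by the vehicle-control measurement.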

[1] abbreviates: dose: 100.0 mg/kg/injection, schedule: Q01DX001 (ip), vehicle: saline.
[2] abbreviates: dose: 200.0 mg/kg/injection, schedule: Q01DX001 (ip), vehicle: saline.
Where [3] appears, read: dose: 400.0 mg/kg/injection, schedule: Q01DX001 (ip), vehicle: saline.
[4] abbreviates: dose: 100.0 mg/kg/injection, schedule: Q01DX009 (ip), vehicle: saline with Tween-80.
Setting [5] is: dose: 100.0 mg/kg/injection, schedule: Q04DX003 (ip), vehicle: saline with Tween-80.
[6] abbreviates: dose: 200.0 mg/kg/injection, schedule: Q01DX009 (ip), vehicle: saline with Tween-80.
Setting [7] is: dose: 200.0 mg/kg/injection, schedule: Q04DX003 (ip), vehicle: saline with Tween-80.
[8] abbreviates: dose: 400.0 mg/kg/injection, schedule: Q01DX009 (ip), vehicle: saline with Tween-80.
Where [9] appears, read: dose: 400.0 mg/kg/injection, schedule: Q04DX003 (ip), vehicle: saline with Tween-80.
The mark [10] stands for this setting: dose: 75.0 mg/kg/injection, schedule: Q01DX001 (ip), vehicle: saline.
[11] abbreviates: dose: 100.0 mg/kg/injection, schedule: Q01DX009 (ip), vehicle: Klucel (hydroxypropylcellulose) (HPC).
[12] abbreviates: dose: 50.0 mg/kg/injection, schedule: Q01DX001 (ip), vehicle: carboxymethylcellulose (CMC).
Where [13] appears, read: dose: 100.0 mg/kg/injection, schedule: Q01DX001 (ip), vehicle: carboxymethylcellulose (CMC).
Setting [14] is: dose: 200.0 mg/kg/injection, schedule: Q01DX001 (ip), vehicle: carboxymethylcellulose (CMC).
The mark [15] stands for this setting: dose: 400.0 mg/kg/injection, schedule: Q01DX001 (ip), vehicle: carboxymethylcellulose (CMC).

Structures are written as SMILES. “And” between values parts separate entries of the source, which are not always exact repeats. Equal values may be shown once. Toxic doses and inconclusive results are not listed.

Regarding `OC1/C=C\CCCCC1` (stereo unspecified), the T/C by setting is: under setting [1], 98 % of control; under setting [2], 93 % of control; under setting [3], 98 % of control.

On to `CCCCCCCCCCCC(=O)CC`, for which the T/C is 96 % of control (dose: 50.0 mg/kg/injection, schedule: Q01DX009 (ip), vehicle: saline with Tween-80); 100 % of control under setting [4]; 98 % of control under setting [5]; 92 % of control and 93 % of control under setting [6]; 103 % of control under setting [7]; 94 % of control under setting [8]. Moreover, the T/C under setting [9] is 98 % of control.

In the case of `NC(=O)c1ccccc1I`, the T/C is 101 % of control under setting [10]; 103 % of control (dose: 75.0 mg/kg/injection, schedule: Q01DX009 (ip), vehicle: saline); 96 % of control (dose: 150.0 mg/kg/injection, schedule: Q01DX001 (ip), vehicle: saline); 86 % of control (dose: 150.0 mg/kg/injection, schedule: Q01DX009 (ip), vehicle: saline); 96 % of control (dose: 300.0 mg/kg/injection, schedule: Q01DX001 (ip), vehicle: saline); 100 % of control (dose: 300.0 mg/kg/injection, schedule: Q01DX009 (ip), vehicle: saline).

On to `Clc1nc2ccccc2c2ccccc12`, for which the T/C was 96 % of control (dose: 43.0 mg/kg/injection, schedule: Q01DX001 (ip), vehicle: carboxymethylcellulose (CMC)); 92 % of control (dose: 85.0 mg/kg/injection, schedule: Q01DX001 (ip), vehicle: carboxymethylcellulose (CMC)); 92 % of control (dose: 170.0 mg/kg/injection, schedule: Q01DX001 (ip), vehicle: carboxymethylcellulose (CMC)).

For the compound `Cc1cc(C)c2nc(Cl)cc(C)c2c1`, the T/C runs as follows: under setting [1], 91 % of control; under setting [2], 91 % of control; under setting [3], 104 % of control.

As for `CC(C)CC1(C)NC(=O)NC1=O` (stereo unspecified), the T/C under setting [4] is 97 % of control, the T/C under setting [6] was 102 % of control and the T/C under setting [8] is 97 % of control.

In the case of `[O-][n+]1c(CN2CCCCC2)nc2cccc3c2c1-c1ccccc1-3`, the T/C reads like this: under setting [4], 97 % of control; under setting [5], 101 % of control; under setting [6], 100 % of control; under setting [7], 101 % of control; under setting [8], 107 % of control; under setting [9], 100 % of control.

As to `CC(C)(C)C1=CC(=C(Cl)Cl)C=C(C(C)(C)C)C1=O`, the T/C is, setting by setting: (dose: 100.0 mg/kg/injection, schedule: Q04DX003 (ip), vehicle: other) 97 % of control; (dose: 200.0 mg/kg/injection, schedule: Q04DX003 (ip), vehicle: other) 98 % of control; (dose: 400.0 mg/kg/injection, schedule: Q04DX003 (ip), vehicle: other) 93 % of control.

Consider `Nc1c(Cl)cc(Cl)c2ccc([N+](=O)[O-])cc12`, for which the T/C runs as follows: under setting [11], 93 % of control; (dose: 100.0 mg/kg/injection, schedule: Q04DX003 (ip), vehicle: Klucel (hydroxypropylcellulose) (HPC)) 103 % of control; (dose: 200.0 mg/kg/injection, schedule: Q01DX009 (ip), vehicle: Klucel (hydroxypropylcellulose) (HPC)) 107 % of control; (dose: 200.0 mg/kg/injection, schedule: Q04DX003 (ip), vehicle: Klucel (hydroxypropylcellulose) (HPC)) 93 % of control; (dose: 400.0 mg/kg/injection, schedule: Q01DX009 (ip), vehicle: Klucel (hydroxypropylcellulose) (HPC)) 95 % of control; (dose: 400.0 mg/kg/injection, schedule: Q04DX003 (ip), vehicle: Klucel (hydroxypropylcellulose) (HPC)) 93 % of control.

As to `O=C(O)Cn1[nH]c(=O)ccc1=O`, the T/C is 103 % of control (dose: 100.0 mg/kg/injection, schedule: Q01DX001 (ip), vehicle: saline with Tween-80); 103 % of control (dose: 200.0 mg/kg/injection, schedule: Q01DX001 (ip), vehicle: saline with Tween-80); 102 % of control (dose: 400.0 mg/kg/injection, schedule: Q01DX001 (ip), vehicle: saline with Tween-80).

As for `Cc1csc[n+]1C1CCCCC1`, the T/C under setting [10] was 100 % of control.

With `Nc1nc(Cl)nc2c1ncn2C1OC(CO)C(O)C1O` (stereo unspecified), the T/C is 102 % of control (dose: 25.0 mg/kg/injection, schedule: Q01DX009 (ip), vehicle: Klucel (hydroxypropylcellulose) (HPC)); 113 % of control (dose: 37.5 mg/kg/injection, schedule: Q01DX009 (ip), vehicle: saline with Tween-80); 93 % of control under setting [12]; 114 % of control (dose: 50.0 mg/kg/injection, schedule: Q01DX009 (ip), vehicle: Klucel (hydroxypropylcellulose) (HPC)); 108 % of control (dose: 50.0 mg/kg/injection, schedule: Q04DX003 (ip), vehicle: saline); 96 % of control under setting [13]. In addition, the T/C reads like this: under setting [1], 92 % of control; under setting [11], 123 % of control; (dose: 100.0 mg/kg/injection, schedule: Q01DX009 (ip), vehicle: saline) 156 % of control; (dose: 100.0 mg/kg/injection, schedule: Q04DX003 (ip), vehicle: saline) 113 % of control; under setting [14], 98 % of control; under setting [2], 103 % of control. Moreover, the T/C runs as follows: (dose: 225.0 mg/kg/injection, schedule: Q01DX009 (ip), vehicle: saline) 121 % of control; (dose: 300.0 mg/kg/injection, schedule: Q04DX003 (ip), vehicle: saline) 153 % of control; under setting [15], 118 % of control.

As for `COc1cc(C=Nc2cccc(Cl)c2)ccc1N(CCCl)CCCl`, the T/C reads like this: (dose: 12.5 mg/kg/injection, schedule: Q01DX Z (ip), vehicle: carboxymethylcellulose (CMC)) 122 % of control; (dose: 25.0 mg/kg/injection, schedule: Q01DX Z (ip), vehicle: carboxymethylcellulose (CMC)) 120 % of control; (dose: 35.0 mg/kg/injection, schedule: Q01DX015 (ip), vehicle: carboxymethylcellulose (CMC)) 87 % of control.

`O=C(/C=C/c1cccc([N+](=O)[O-])c1)c1ccccc1[N+](=O)[O-]`: the T/C is 103 % of control (dose: 100.0 mg/kg/injection, schedule: Q04DX002 (ip), vehicle: Klucel (hydroxypropylcellulose) (HPC)); 103 % of control (dose: 200.0 mg/kg/injection, schedule: Q04DX002 (ip), vehicle: Klucel (hydroxypropylcellulose) (HPC)); 100 % of control (dose: 400.0 mg/kg/injection, schedule: Q04DX002 (ip), vehicle: Klucel (hydroxypropylcellulose) (HPC)).

In the case of `CC1=NN(c2ccccc2)C(=O)C1N=Nc1ccc([As](=O)(O)O)c(O)c1` (stereo unspecified), the T/C by setting is: under setting [1], 96 % of control; under setting [2], 102 % of control; under setting [3], 100 % of control.

As to `CCCC(C(O)CC)[N+](=O)[O-]` (stereo unspecified), the T/C is, setting by setting: (dose: 100.0 mg/kg/injection, schedule: Q01DX001 (ip), vehicle: Klucel (hydroxypropylcellulose) (HPC)) 95 % of control; (dose: 200.0 mg/kg/injection, schedule: Q01DX001 (ip), vehicle: Klucel (hydroxypropylcellulose) (HPC)) 97 % of control; (dose: 400.0 mg/kg/injection, schedule: Q01DX001 (ip), vehicle: Klucel (hydroxypropylcellulose) (HPC)) 101 % of control.

Take `O=C1CCC(=O)N1Nc1ccccc1`: the T/C was 104 % of control under setting [12], 96 % of control under setting [13], 102 % of control under setting [14] and 98 % of control under setting [15].

With `CC12CCC(=O)C3C1CCCC32`, the T/C is 100 % of control under setting [13], 111 % of control under setting [14] and 103 % of control under setting [15].

In the case of `CCCCCC(CN(C)C)C(=O)/C=C\c1ccc(Cl)cc1Cl` (stereo unspecified), the T/C was 87 % of control (dose: 12.5 mg/kg/injection, schedule: Q04DX003 (ip), vehicle: alcohol); 97 % of control (dose: 25.0 mg/kg/injection, schedule: Q04DX003 (ip), vehicle: alcohol); 97 % of control (dose: 50.0 mg/kg/injection, schedule: Q04DX003 (ip), vehicle: alcohol).

These data come from PubChem BioAssay AID248 (DTP/NCI, 2004).
